Assay results from patent US8445707B1, “Compound, composition and uses thereof” (Krisani Biosciences (P) Ltd., priority 2012, dated 2013).
Where two headings read alike, the source gives them in different places.

Assay: Pharmacokinetics of KB-ND-002 compared to Cysteamine Hydrochloride and EPA in mouse plasma and brain after oral administration
Type: in vivo, male mice
Details: for maximum concentration of Cysteamine after dosing compared to endogenous levels in control group animals: analyte Cysteamine
Procedure: Method of Treatment, Testing and Results Using the Final Compound of formula 1 at Charles River Labs: Pharmacokinetics of KB-ND-002 compared to Cysteamine Hydrochloride and EPA in Mouse Plasma and Brain
Parameter estimation was performed on mean plasma and brain Eicosapentanoiec acid, KB-ND-002 and Cysteamine concentration vs nominal sampling time values from 3 animals per timepoint. Parameter estimates were derived for each analyte, and matrix using a non-compartmental approach in WinNonlin Enterprise version 5.2.1 (Pharsight Corp., Mountain View, Calif., USA) in accordance with Charles River standard operating procedures. A WinNonlin regression analysis was performed with each concentration vs time profile reviewed by means of visual inspection to appropriately characterise the apparent terminal elimination phase and optimise the reliability of the lambda-z estimation.
Following Oral Administration of KB-ND-002 (Formula 1), Cysteamine or Eicosapentanoiec Acid in Male Mice, Concentration Vs Time Profiles were Partially Evaluable for PK Purposes.

SMILES: NCCS [Cysteamine]
- systemic exposure to Cysteamine, comparison between groups (112 mg/kg Cysteamine administered): greatest
- maximum concentration of Cysteamine after dosing compared to endogenous levels in control group animals (brain, oral, male mice): up to 10 fold
- maximum concentration of Cysteamine after dosing compared to endogenous levels in control group animals (plasma, oral, male mice): over 400 fold
- Cysteamine concentrations quantifiable over sampling period (brain, sampling duration 5 h): quantifiable for the entire duration of sampling
- Tmax (male, mouse, brain, Group 4, 112 mg/kg Cysteamine oral, read-out: time of peak concentration of Cysteamine (Tmax)): 30 min
- Tmax (male, mouse, plasma, Group 4, 112 mg/kg Cysteamine oral, read-out: time of peak concentration of Cysteamine (Tmax)): 4.8 min
- Cysteamine concentrations observed over sampling period (plasma, only following administration of Cysteamine (Group 4)): only consistently observed for the entire duration of sampling

SMILES: CC/C=C\C/C=C\C/C=C\C/C=C\C/C=C\CCCC(=O)O [Eicosapentanoiec acid]
- systemic exposure to Eicosapentanoiec acid, comparison between groups (112 mg/kg Eicosapentanoiec acid administered): greatest
- maximum concentration of Eicosapentanoiec acid after dosing compared to endogenous levels in control group animals (analyte Eicosapentanoiec acid, plasma, oral, male mice): over 20 fold
- Tmax (male, mouse, brain, Group 5, 112 mg/kg Eicosapentanoiec acid oral, read-out: time of peak concentration of Eicosapentanoiec acid (Tmax)): 60 min
- Tmax (male, mouse, plasma, Group 5, 112 mg/kg Eicosapentanoiec acid oral, read-out: time of peak concentration of Eicosapentanoiec acid (Tmax)): 60 min
- Eicosapentanoiec acid concentrations quantifiable over sampling period (plasma and brain, sampling duration 5 h): quantifiable for the entire duration of sampling

SMILES: CC/C=C\C/C=C\C/C=C\C/C=C\C/C=C/CCCC(=O)NCCSC(C)=O [KB-ND-002]
- Kp (male, mouse, brain and plasma, oral, brain at highest dose vs plasma after low dose (60 mg/kg), read-out: systemic exposure to KB-ND-002 in brain relative to plasma): < 0.01
- dose proportionality based on dose normalised estimates of Cmax and AUC(0-t) (plasma, oral KB-ND-002): sub-proportional
